US12116359B2, “EBNA1 inhibitor crystalline forms, and methods of preparing and using same” (THE WISTAR INSTITUTE, priority 2018, dated 2024)
“Also recorded” adds a separate entry of the source.

Experiments:
Assay type in all cases: physicochemical
[1] = Storage stability of solid forms at elevated temperature/humidity (XRPD, HPLC purity); conditions: one week
Description: Purity analysis was performed on an Agilent HP1100 series system equipped with a diode array detector and using ChemStation software vB.04.03 using the method detailed in Table 1.
Amorphous (I) free acid was stored at 40° C./75% RH (open vial), 25° C./97% RH (open vial) and 60° C. (closed vial, ambient humidity) for 8 weeks.
Characterization by XRPD, ^1H NMR, TGA, DSC and storage at 40° C./75% RH for one week was carried out. Details are found in Table 10.

[2] = Gravimetric vapour sorption (GVS); conditions: for Hygroscopicity: GVS, 0-90% RH
Description: Sorption isotherms were obtained using a SMS DVS Intrinsic moisture sorption analyzer, controlled by DVS Intrinsic Control software. The sample temperature was maintained at 25° C. by instrument controls. The humidity was controlled by mixing streams of dry and wet nitrogen, with a total flow rate of 200 ml/min. The relative humidity was measured by a calibrated Rotronic probe (dynamic range of 1.0-100% RH), located near the sample. The weight change (mass relaxation) of the sample as a function of % RH was constantly monitored by the microbalance (accuracy ±0.005 mg). Typically 5-20 mg of sample was placed in a tared mesh stainless steel basket under ambient conditions. The sample was loaded and unloaded at 40% RH and 25° C. (typical room conditions). A moisture sorption isotherm was performed as outlined below (2 scans giving 1 complete cycle). The standard isotherm was performed at 25° C. at 10% RH intervals over a 0-90% RH range. Data analysis was carried out using Microsoft Excel. The sample was recovered after completion of the isotherm and re-analyzed by XRPD.

[3] = Stability assessment of Pattern 5 slurried in solvents at 4 or 50° C.; conditions: for Solid form recovered in stability assessment: 4 and 50° C., 8 solvents including solvent mixtures, XRPD; for Observations Overnight at 4° C. maturation / Observations Overnight at 50° C. maturation: 16 h
Description: The aim of this set of experiments was to test the stability of Pattern 5 in different conditions by slurring the material at either 4 or 50° C. in a range of 8 selected solvents including mixtures.
The supplied material was dissolved or suspended in the chosen solvent at r.t. Solvents were added in 10 vol. aliquots up to 30 vol. and observations were recorded; if a solution was obtained at any point then no further additions were made. Samples were kept at 4° C. or 50° C. over 16 h, and analyzed by XRPD. The solids were filtered and analyzed by XRPD. The solutions were allowed to evaporate at r.t. to afford solids which were also analyzed by XRPD.

[4] = Variable temperature XRPD; conditions: 25-165° C.
Description: Samples run under non-ambient conditions were mounted on a silicon wafer with heat-conducting compound. The sample was then heated to the appropriate temperature at 30° C./min and subsequently held isothermally for 1 minute before data collection was initiated.

[5] = Storage stability of solid forms at elevated temperature/humidity (XRPD, HPLC purity); conditions: 25° C./97% RH, one week; listed as Crystalline Pattern 5
[6] = listed as Crystalline Pattern 5
[7] = EtOAc, solid after evaporation at r.t.
[8] = EtOAc/EtOH (1:3), solid after evaporation at r.t.
[9] = EtOAc/EtOH (3:1), solid after evaporation at r.t.

## O=C(O)c1cccc(C#Cc2ccc(COC3CCOCC3)cc2)c1-c1ccc2cc[nH]c2c1 [Pattern 5, 2-(1H-Indol-6-yl)-3-[4-(tetrahydro-pyran-4-yloxymethyl)-phenylethynyl]-benzoic acid]
[1]; 25° C./97% RH
  XRPD post 25° C./97% RH: remained unchanged by XRPD
[1]; 25° C./97% RH, initial purity 98.3% A.U.C.
  HPLC Purity after storage at 25° C./97% RH (Pharmorphix generic method): 98.0 % A.U.C.
[1]; 40° C./75% RH
  XRPD post 40° C./75% RH: remained unchanged by XRPD
[1]; 40° C./75% RH, initial purity 98.3% A.U.C.
  HPLC Purity after storage at 40° C./75% RH (Pharmorphix generic method): 98.0 % A.U.C.
[1]; 40° C./75% RH, listed as Crystalline Pattern 5
  XRPD post 40° C./75% RH: No change in crystalline form; also recorded: Unchanged
[2]
  Hygroscopicity: non-hygroscopic
[2]; [6]
  Hygroscopicity: non-hygroscopic; also recorded: not hygroscopic
[2]; after 0-90% RH isotherm, listed as Crystalline Pattern 5
  XRPD after GVS: Unchanged by XRPD
[2]; between 0-90% RH, 25° C., listed as Crystalline Pattern 5
  GVS moisture uptake: 0.3%
[3]
  Solid form recovered in stability assessment: no change in solid form
[3]; [6]
  Solid form recovered in stability assessment: Pattern 5 being recovered in all cases
[3]; EtOAc
  Observations Overnight at 4° C. maturation: solution
  Observations Overnight at 50° C. maturation: solution
[3]; [7]
  XRPD after stability assessment at 4° C.: Pattern 5
  XRPD after stability assessment at 50° C.: Pattern 5
[3]; EtOAc/EtOH (1:3)
  Observations Overnight at 4° C. maturation: solution
  Observations Overnight at 50° C. maturation: solution + yellow solid
[3]; [8]
  XRPD after stability assessment at 4° C.: Pattern 5
  XRPD after stability assessment at 50° C.: Pattern 5
[3]; EtOAc/EtOH (3:1)
  Observations Overnight at 4° C. maturation: solution
  Observations Overnight at 50° C. maturation: solution + yellow solid
[3]; [9]
  XRPD after stability assessment at 4° C.: Pattern 5
  XRPD after stability assessment at 50° C.: Pattern 5
[3]; EtOH
  XRPD after stability assessment at 4° C.: Pattern 5
  Observations Overnight at 4° C. maturation: White Suspension
  Observations Overnight at 50° C. maturation: solution
[3]; EtOH, solid after evaporation at r.t.
  XRPD after stability assessment at 50° C.: Pattern 5
[3]; Heptane
  XRPD after stability assessment at 4° C.: Pattern 5
  Observations Overnight at 4° C. maturation: White Suspension
  XRPD after stability assessment at 50° C.: Pattern 5
  Observations Overnight at 50° C. maturation: White Suspension
[3]; IPA
  XRPD after stability assessment at 4° C.: Pattern 5
  Observations Overnight at 4° C. maturation: White Suspension
  Observations Overnight at 50° C. maturation: solution + yellow solid
[3]; IPA, solid after evaporation at r.t.
  XRPD after stability assessment at 50° C.: Pattern 5
[3]; MIBK
  XRPD after stability assessment at 4° C.: Pattern 5
  Observations Overnight at 4° C. maturation: Off-White Suspension
  Observations Overnight at 50° C. maturation: solution
[3]; MIBK, solid after evaporation at r.t.
  XRPD after stability assessment at 50° C.: Pattern 5
[3]; TBME
  XRPD after stability assessment at 4° C.: Pattern 5
  Observations Overnight at 4° C. maturation: White Suspension
  XRPD after stability assessment at 50° C.: Pattern 5
  Observations Overnight at 50° C. maturation: White Suspension
[4]
  Variable temperature XRPD: remained as Pattern 5
[4]; [6]
  Variable temperature XRPD: Remained as Pattern 5 from 25-165 °C
[5]
  XRPD post 25° C./97% RH: No change in crystalline form; also recorded: Unchanged
